The values that follow come from the NIST ThermoML archive (doi:10.1021/je7003758).

± gives the expanded uncertainty stated by the source.

For the first data set the following is noted: 298.15 K; 100 kPa; Liquid.
Turning to `ClCCCl` [1,2-dichloroethane], the mass density is 1245.5 ± 0.6 kg/m3.
In the case of `ClCCCCCl` [1,4-dichlorobutane], the mass density was 1133.7 ± 3.4 kg/m3.
For `ClCCCCCCCl` [1,6-dichlorohexane], the mass density stood at 1063.8 ± 1.4 kg/m3.
On to `CCCCCl` [1-chlorobutane], for which the mass density turned out to be 880.6 ± 0.3 kg/m3.
For the molecule `CCCCCCCl` [1-chlorohexane], the mass density is given as 873.1 ± 0.6 kg/m3.
Turning to `CCCCCCCCCl` [1-chlorooctane], the mass density amounted to 868.8 ± 1.3 kg/m3.

The data set is the same for the next values; noted with them: 298.15 K; 10000 kPa; Liquid.
Take `ClCCCl` [1,2-dichloroethane]: the mass density was determined as 1255.1 ± 1 kg/m3.

Usually mass density stands for the mass of a sample divided by its volume.
